pEC50: −log10 of the molar value.
Biological target: GLP-1 Receptor (Homo sapiens, UniProt P43220)
Assay: GLP-1R agonist cAMP stimulation assay
Assay type: cell-based
Conditions: not given
Summary of the method: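 HEK293/CRE-Luc cells stably expressing GLP-1R, 1000 cells/well in DPBS with 0.5 mM IBMX and 0.1% BSA, exposed to ½-log compound dilutions 30 min at 37 °C. cAMP measured by HTRF (665/615 nm) after 1 h at room temperature. % activity normalised between vehicle and MAX controls.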

Chain of GLP-1 Receptor (P43220 24-463, species assumed): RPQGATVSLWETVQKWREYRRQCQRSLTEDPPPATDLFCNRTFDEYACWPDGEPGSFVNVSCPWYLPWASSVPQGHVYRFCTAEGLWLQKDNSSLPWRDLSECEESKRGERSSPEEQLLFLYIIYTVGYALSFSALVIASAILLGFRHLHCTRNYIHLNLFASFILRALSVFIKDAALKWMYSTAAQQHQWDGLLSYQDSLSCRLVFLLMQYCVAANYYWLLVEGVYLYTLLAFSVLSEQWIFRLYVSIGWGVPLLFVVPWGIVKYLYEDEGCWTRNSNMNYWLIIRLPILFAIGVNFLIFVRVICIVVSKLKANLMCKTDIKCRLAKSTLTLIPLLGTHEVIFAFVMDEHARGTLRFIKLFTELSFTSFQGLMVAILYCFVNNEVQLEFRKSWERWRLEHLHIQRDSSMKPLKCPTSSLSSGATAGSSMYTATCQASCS

SMILES | pEC50
Cc1cc(-c2ccc3c(c2)nc(CN2CCC(Oc4ccnc(Cc5ccc(Cl)cc5)n4)CC2)n3C[C@@H]2CCO2)[nH]n1 [Compound 131a, 2-{[4-({2-[(4-chlorophenyl)methyl]pyrimidin-4-yl}oxy)piperidin-1-yl]methyl}-5-(3-methyl-1H-pyrazol-5-yl)-1-{[(2S)-oxetan-2-yl]methyl}-1H-1,3-benzodiazole] | 8.74
Cc1nnc(-c2cnc3c(c2)nc(CN2CCC(Oc4nc(Cc5ccc(Cl)cc5)ncc4F)CC2)n3C[C@@H]2CCO2)[nH]1 [Compound 162a, 2-[(4-chlorophenyl)methyl]-5-fluoro-4-[(1-{[6-(5-methyl-4H-1,2,4-triazol-3-yl)-3-{[(2S)-oxetan-2-yl]methyl}-3H-imidazo[4,5-b]pyridin-2-yl]methyl}piperidin-4-yl)oxy]pyrimidine] | 8.54
CCOCCn1c(CN2CCC(Oc3ccnc(Cc4ccc(Cl)cc4)n3)CC2)nc2cc(-c3nnc(C(F)(F)F)[nH]3)cnc21 [Compound 123, 2-[(4-chlorophenyl)methyl]-4-[(1-{[3-(2-ethoxyethyl)-6-[5-(trifluoromethyl)-4H-1,2,4-triazol-3-yl]-3H-imidazo[4,5-b]pyridin-2-yl]methyl}piperidin-4-yl)oxy]pyrimidine] | 8.24
N#Cc1nnc(-c2cc3nc(CN4CCC(Oc5nc(Cc6ccc(Cl)cc6F)ncc5F)CC4)n(C[C@@H]4CCO4)c3cn2)[nH]1 [Compound 193a, 5-(2-{[4-({2-[(4-chloro-2-fluorophenyl)methyl]-5-fluoropyrimidin-4-yl}oxy)piperidin-1-yl]methyl}-3-{[(2S)-oxetan-2-yl]methyl}-3H-imidazo[4,5-c]pyridin-6-yl)-4H-1,2,4-triazole-3-carbonitrile] | 10.62

Results, then the compound that gave them:

pEC50 | SMILES
8.48 | COCc1nnc(-c2cc3nc(CN4CCC(Oc5cccc(Cc6ccc(Cl)cc6F)n5)CC4)n(C[C@@H]4CCO4)c3cn2)[nH]1 [Compound 183a, 2-[(4-chloro-2-fluorophenyl)methyl]-6-{[1-({6-[5-(methoxymethyl)-4H-1,2,4-triazol-3-yl]-3-{[(2S)-oxetan-2-yl]methyl}-3H-imidazo[4,5-c]pyridin-2-yl}methyl)piperidin-4-yl]oxy}pyridine]
8.82 | Fc1cc(Cl)ccc1Cc1ncc(F)c(OC2CCN(Cc3nc4cc(-c5nnc[nH]5)ncc4n3C[C@@H]3CCO3)CC2)n1 [Compound 169a, 2-[(4-chloro-2-fluorophenyl)methyl]-5-fluoro-4-({1-[(3-{[(2S)-oxetan-2-yl]methyl}-6-(4H-1,2,4-triazol-3-yl)-3H-imidazo[4,5-c]pyridin-2-yl)methyl]piperidin-4-yl}oxy)pyrimidine]
8.77 | FC(F)(F)c1nnc(-c2cc3nc(CN4CCC(Oc5cccc(Cc6ccc(Cl)cc6)n5)CC4)n(C[C@@H]4CCO4)c3cn2)[nH]1 [Compound 140a, 2-[(4-chlorophenyl)methyl]-6-({1-[(3-{[(2S)-oxetan-2-yl]methyl}-6-[5-(trifluoromethyl)-4H-1,2,4-triazol-3-yl]-3H-imidazo[4,5-c]pyridin-2-yl)methyl]piperidin-4-yl}oxy)pyridine]

Same assay, conditions: HEK293/GLP1R/CRE-LUC cells, cAMP dynamic 2 Kit (Cisbio), 30 min incubation at 37° C.; read-out: EC50

SMILES | pEC50
CC(C)c1ccc(C(=O)Nc2ccc3c(c2)nc(CN2CCC(Oc4ccnc(Cc5ccc(Cl)cc5F)n4)CC2)n3C[C@@H]2CCO2)cn1 [Compound 116a, N-(2-{[4-({2-[(4-chloro-2-fluorophenyl)methyl]pyrimidin-4-yl}oxy)piperidin-1-yl]methyl}-1-{[(2S)-oxetan-2-yl]methyl}-1H-1,3-benzodiazol-5-yl)-6-(propan-2-yl)pyridine-3-carboxamide] | 7.96
Fc1cnc(Cc2ccc(Cl)cc2)nc1OC1CCN(Cc2nc3cc(-c4nnc(C(F)(F)F)[nH]4)cnc3n2C[C@@H]2CCO2)CC1 [Compound 121a, 2-[(4-chlorophenyl)methyl]-5-fluoro-4-({1-[(3-{[(2S)-oxetan-2-yl]methyl}-6-[5-(trifluoromethyl)-4H-1,2,4-triazol-3-yl]-3H-imidazo[4,5-b]pyridin-2-yl)methyl]piperidin-4-yl}oxy)pyrimidine] | 9.30
O=C(Nc1ccc2c(c1)nc(CN1CCC(Oc3ccnc(Cc4ccc(Cl)cc4)n3)CC1)n2C[C@@H]1CCO1)c1cccnc1 [Compound 102a, N-(2-{[4-({2-[(4-chlorophenyl)methyl]pyrimidin-4-yl}oxy)piperidin-1-yl]methyl}-1-{[(2S)-oxetan-2-yl]methyl}-1H-1,3-benzodiazol-5-yl)pyridine-3-carboxamide] | 9.51
O=C(O)c1ccc2c(c1)nc(CN1CCC(Oc3ccnc(Cc4ccc(Cl)cc4F)n3)CC1)n2C[C@@H]1CCO1 [Compound 135a, 2-{[4-({2-[(4-chloro-2-fluorophenyl)methyl]pyrimidin-4-yl}oxy)piperidin-1-yl]methyl}-1-{[(2S)-oxetan-2-yl]methyl}-1H-1,3-benzodiazole-5-carboxylic acid] | 9.72
COC1(Cn2c(CN3CCC(Oc4cccc(Cc5ccc(Cl)cc5F)n4)CC3)nc3cc(-c4nnc(C(F)(F)F)[nH]4)ncc32)CC1 [Compound 192, 2-[(4-chloro-2-fluorophenyl)methyl]-6-{[1-({3-[(1-methoxycyclopropyl)methyl]-6-[5-(trifluoromethyl)-4H-1,2,4-triazol-3-yl]-3H-imidazo[4,5-c]pyridin-2-yl}methyl)piperidin-4-yl]oxy}pyridine] | 8.40
O=C(Nc1ccc2c(c1)nc(CN1CCC(Oc3ccnc(Cc4ccc(Cl)cc4F)n3)CC1)n2C[C@@H]1CCO1)c1cccnc1 [Compound 111a, N-(2-{[4-({2-[(4-chloro-2-fluorophenyl)methyl]pyrimidin-4-yl}oxy)piperidin-1-yl]methyl}-1-{[(2S)-oxetan-2-yl]methyl}-1H-1,3-benzodiazol-5-yl)pyridine-3-carboxamide] | 10.05
FC(F)(F)c1nnc(-c2ccc3c(c2)nc(CN2CCC(Oc4ccnc(Cc5ccc(Cl)cc5)n4)CC2)n3C[C@H]2CCOC2)[nH]1 [Compound 148a, 2-{[4-({2-[(4-chlorophenyl)methyl]pyrimidin-4-yl}oxy)piperidin-1-yl]methyl}-1-{[(3R)-oxolan-3-yl]methyl}-5-[5-(trifluoromethyl)-4H-1,2,4-triazol-3-yl]-1H-1,3-benzodiazole] | 8.85
Cc1ccc(C(=O)Nc2ccc3c(c2)nc(CN2CCC(Oc4ccnc(Cc5ccc(Cl)cc5F)n4)CC2)n3C[C@@H]2CCO2)cn1 [Compound 113a, N-(2-{[4-({2-[(4-chloro-2-fluorophenyl)methyl]pyrimidin-4-yl}oxy)piperidin-1-yl]methyl}-1-{[(2S)-oxetan-2-yl]methyl}-1H-1,3-benzodiazol-5-yl)-6-methylpyridine-3-carboxamide] | 9.74
Fc1cc(Cl)ccc1Cc1ncc(F)c(OC2CCN(Cc3nc4cc(-c5nnc(C(F)(F)F)[nH]5)ncc4n3C[C@@H]3CCO3)CC2)n1 [Compound 168a, 2-[(4-chloro-2-fluorophenyl)methyl]-5-fluoro-4-({1-[(3-{[(2S)-oxetan-2-yl]methyl}-6-[5-(trifluoromethyl)-4H-1,2,4-triazol-3-yl]-3H-imidazo[4,5-c]pyridin-2-yl)methyl]piperidin-4-yl}oxy)pyrimidine] | 10.09
Fc1cc(Cl)ccc1Cc1nccc(OC2CCN(Cc3nc4cc(-c5nnc(C(F)(F)F)[nH]5)nnc4n3C[C@@H]3CCO3)CC2)n1 [Compound 182a, 2-[(4-chloro-2-fluorophenyl)methyl]-4-({1-[(7-{[(2S)-oxetan-2-yl]methyl}-3-[5-(trifluoromethyl)-4H-1,2,4-triazol-3-yl]-7H-imidazo[4,5-c]pyridazin-6-yl)methyl]piperidin-4-yl}oxy)pyrimidine] | 9.70
CCc1ccc(C(=O)Nc2ccc3c(c2)nc(CN2CCC(Oc4ccnc(Cc5ccc(Cl)cc5F)n4)CC2)n3C[C@@H]2CCO2)cn1 [Compound 114a, N-(2-{[4-({2-[(4-chloro-2-fluorophenyl)methyl]pyrimidin-4-yl}oxy)piperidin-1-yl]methyl}-1-{[(2S)-oxetan-2-yl]methyl}-1H-1,3-benzodiazol-5-yl)-6-ethylpyridine-3-carboxamide] | 8.80

The next lines start with the values.

pEC50 | SMILES
9.85 | Fc1cc(Cl)ccc1Cc1cccc(OC2CCN(Cc3nc4cc(-c5nnc(C(F)(F)F)[nH]5)ccc4n3C[C@@H]3CCO3)CC2)n1 [Compound 137a, 2-{[4-({6-[(4-chloro-2-fluorophenyl)methyl]pyridin-2-yl}oxy)piperidin-1-yl]methyl}-1-{[(2S)-oxetan-2-yl]methyl}-5-[5-(trifluoromethyl)-4H-1,2,4-triazol-3-yl]-1H-1,3-benzodiazole]
< 6.52 | COc1cncc(-c2cc3nc(CN4CCC(Oc5cccc(Cc6ccc(Cl)cc6F)n5)CC4)n(C[C@@H]4CCO4)c3cn2)n1 [Compound 187a, 2-(2-{[4-({6-[(4-chloro-2-fluorophenyl)methyl]pyridin-2-yl}oxy)piperidin-1-yl]methyl}-3-{[(2S)-oxetan-2-yl]methyl}-3H-imidazo[4,5-c]pyridin-6-yl)-6-methoxypyrazine]
7.82 | O=c1[nH]c(-c2ccc3c(c2)nc(CN2CCC(Oc4cccc(Cc5ccc(Cl)cc5F)n4)CC2)n3C[C@@H]2CCO2)no1 [Compound 109a]
9.89 | Fc1cc(Cl)ccc1Cc1nccc(OC2CCN(Cc3nc4cc(-c5nnn[nH]5)ncc4n3C[C@@H]3CCO3)CC2)n1 [Compound 177a, 2-[(4-chloro-2-fluorophenyl)methyl]-4-({1-[(3-{[(2S)-oxetan-2-yl]methyl}-6-(1H-1,2,3,4-tetrazol-5-yl)-3H-imidazo[4,5-c]pyridin-2-yl)methyl]piperidin-4-yl}oxy)pyrimidine]

From patent publication US20240083886A1, “HETEROCYCLIC GLP-1 AGONISTS” (Gasherbrum Bio, Inc., priority 2020, published 2024)
